Active and inactive are the calls of the source.
Key:
KYSE-70 cell line = assay: Photocytotoxicity against human KYSE-70 cells assessed as reduction in cell viability irradiated with 640 +/- 15 nm red LED for 4 hrs measured after 24 hrs by MTT assay; format: functional, cell-based; conditions: KYSE-70, light or radiation study
HeLa [1] = assay: Photocytotoxicity against human HeLa cells assessed as reduction in cell viability irradiated with 640 +/- 15 nm red LED for 4 hrs measured after 24 hrs under hypoxic condition by MTT assay; format: functional, cell-based; conditions: light or radiation study
A-375 [2] = assay: Photocytotoxicity against human A-375 cells assessed as reduction in cell viability irradiated with 640 +/- 15 nm red LED for 4 hrs measured after 24 hrs under hypoxic condition by MTT assay; format: functional, cell-based; conditions: A-375, light or radiation study
A-375 [3] = assay: Antiproliferative activity against human A-375 cells assessed as inhibition of cell proliferation irradiated with 640 +/- 15 nm red LED for 4 hrs in presence of 30 uM D-mannitol measured after 24 hrs by MTT assay; format: functional, cell-based
B16 [4] = assay: Antiproliferative activity against mouse B16 cells assessed as inhibition of cell proliferation irradiated with 640 +/- 15 nm red LED for 4 hrs in presence of 30 uM D-mannitol measured after 24 hrs by MTT assay; format: functional, cell-based
[5] = Drug uptake in mouse B16 cells mitochondria incubated for 24 hrs by mito-tracker green based confocal microscopic method; format: ADME; conditions: b16, 24 h
A-375 [6] = assay: Induction of apoptosis in human A-375 cells assessed as apoptotic cells at 100 nM irradiated with 640 +/- 15 nm red LED for 1 hrs after 24 hrs by Annexin V-FITC/propidium iodide staining based flow cytometric analysis relative to control; format: functional, cell-based
A-375 [7] = assay: Induction of apoptosis in human A-375 cells assessed as apoptotic cells at 300 nM […] irradiated with 640 +/- 15 nm red LED for 1 hrs after 24 hrs by Annexin V-FITC/propidium iodide staining based flow cytometric analysis relative to control; format: functional, cell-based
A-375 [8] = assay: Induction of mitochondrial membrane potential disruption in human A-375 cells assessed as reduction in red fluorescence upto 300 nM irradiated with 640 +/- 15 nm red LED for 1 hrs measured after 24 hrs by JC1 staining based fluorescence microscopy; format: functional, cell-based; conditions: dose nM <=300, time 24.0 hrs
B16 [9] = assay: Induction of apoptosis in mouse B16 cells assessed as increase in Bax level at 200 to 400 nM irradiated with 640 +/- 15 nm red LED for 1 hrs measured after 24 hrs by Western blot analysis; format: functional, cell-based; conditions: dose 200-400 nM
A-375 [10] = assay: Induction of apoptosis in human A-375 cells assessed as decrease in Bcl2 level at 100 to 300 nM irradiated with 640 +/- 15 nm red LED for 1 hrs measured after 24 hrs by Western blot analysis; format: functional, cell-based; conditions: dose 100-300 nM
A-375 [11] = assay: Induction of apoptosis in human A-375 cells assessed as increase in cleaved caspase 3 level at 100 to 300 nM irradiated with 640 +/- 15 nm red LED for 1 hrs measured after 24 hrs by Western blot analysis; format: functional, cell-based; conditions: dose 100-300 nM
A-375 [12] = assay: Antitumor activity against human A-375 cells xenografted in BALB/c mouse assessed as reduction in tumor volume at 50 uM, IT once every 2 days for 2 weeks followed every dosing irradiated with 640 +/- 15 nm red LED for 4 hrs; format: functional, cell-based
[13] = Toxicity in BALB/c mouse xenografted with human A-375 cells assessed as body weight at 50 uM, IT once every 2 days for 2 weeks followed every dosing irradiated with 640 +/- 15 nm red LED for 4 hrs; conditions: in vivo, other, 336 h
B16 [14] = assay: (§1) Antitumor activity against mouse B16 cells xenografted in C57BL/6J mouse assessed as tumor growth inhibition at high dose intratumorally once every 2 days for 2 weeks followed every dosing irradiated with 640 +/- 15 nm red LED for 4 hrs measured after 14 days treatment; format: functional, cell-based; conditions: time 14.0 day
B16 [15] = assay: Antitumor activity against mouse B16 cells xenografted in C57BL/6J mouse assessed as reduction in tumor volume at high dose intratumorally once every 2 days for 2 weeks followed every dosing irradiated with 640 +/- 15 nm red LED for 4 hrs measured after 14 days treatment; format: functional, cell-based; conditions: time 14.0 day
[16] = Toxicity in C57BL/6 mouse model assessed as effect on heart treated intratumorally once every 2 days for 2 weeks followed every dosing irradiated with 640 +/- 15 nm red LED for 4 hrs measured upto 28 days by H and E staining dependent light microscopy based histopathological analysis; format: tissue-based; conditions: in vivo, other, time <=28 day
[17] = Toxicity in C57BL/6 mouse model assessed as effect on lungs treated intratumorally once every 2 days for 2 weeks followed every dosing irradiated with 640 +/- 15 nm red LED for 4 hrs measured upto 28 days by H and E staining dependent light microscopy based histopathological analysis; conditions: in vivo, other, time <=28 day
[18] = Toxicity in C57BL/6 mouse model assessed as effect on kidney treated intratumorally once every 2 days for 2 weeks followed every dosing irradiated with 640 +/- 15 nm red LED for 4 hrs measured upto 28 days by H and E staining dependent light microscopy based histopathological analysis; format: tissue-based; conditions: in vivo, other, time <=28 day
[19] = Toxicity in C57BL/6 mouse model assessed as effect on spleen treated intratumorally once every 2 days for 2 weeks followed every dosing irradiated with 640 +/- 15 nm red LED for 4 hrs measured upto 28 days by H and E staining dependent light microscopy based histopathological analysis; format: tissue-based; conditions: in vivo, other, time <=28 day
[20] = Toxicity in C57BL/6 mouse model assessed as change in white blood cell count measured after 14 days; format: tissue-based; conditions: 336 h, time 14 day
[21] = Toxicity in C57BL/6 mouse assessed as effect on aspartate aminotransferase level measured after 2 days; conditions: in vivo, 48 h, time 2 day
[22] = Toxicity in C57BL/6 mouse assessed as effect on aspartate aminotransferase level measured after 7 days; conditions: in vivo, 168 h, time 7 day
[23] = Toxicity in C57BL/6 mouse assessed as effect on serum creatinine level measured upto 14 days; conditions: in vivo, 336 h, time <=14 day
[24] = Toxicity in C57BL/6 mouse assessed as effect on lactate dehydrogenase level measured upto 14 days; conditions: in vivo, 336 h, time <=14 day
[25] = Toxicity in C57BL/6 mouse assessed as effect on creatine kinase level measured upto 14 days; conditions: in vivo, 336 h, time <=14 day
HeLa [26] = assay: Photo-therapeutic index, ratio of LD50 for photocytotoxicity against human HeLa cells assessed as reduction in cell viability irradiated with 640 +/- 15 nm red LED for 4 hrs measured after 24 hrs by MTT assay to LD50 for cytotoxicity against human HeLa cells assessed as cell viability in dark measured after 24 hrs by MTT assay; format: functional
[27] = Drug uptake in human A-375 cells incubated for 24 hrs in presence of 2-deoxyglucose and sodium azide by mito-tracker green based confocal microscopic method; format: ADME, cell-based; conditions: a-375, 24 h
[28] = Drug uptake in mouse B16 cells incubated for 24 hrs in presence of 2-deoxyglucose and sodium azide by mito-tracker green based confocal microscopic method; format: ADME, cell-based; conditions: b16, 24 h
A-375 [29] = assay: Induction of intracellular reactive oxygen species production in human A-375 cells assessed as […] membrane damage at 200 nM irradiated with 640 +/- 15 nm red LED for 1 hr measured after 4 hrs by mito-tracker green based confocal microscopic method; format: functional, cell-based
B16 [30] = assay: as §1, with “C57BL/6” for “C57BL/6J”, “inhibition by measuring nuclear pyknosis treated” for “inhibition”; format: functional, cell-based; conditions: time 14.0 day

CC(C)(C)C1=Cc2nc1ccc1[nH]c(cc1S(=O)(=O)NCCOCCO)c1nc(ccc3[nH]c2cc3C(C)(C)C)C(C(C)(C)C)=C1
Not Active: Drug uptake [27] | Drug uptake [28]
324 nM: DC50 (A-375 [2])
31 nM: DC50 (KYSE-70 cell line)
Non-Toxic: Activity [13] | Activity [16] | Activity [17] | Activity [18] | Activity [19] | Activity [20] | Activity [23] | Activity [24] | Activity [25]
49 nM: DC50 (HeLa [1])
active: Activity (A-375 [6]) | Activity (A-375 [7]) | Activity (A-375 [8]) | Activity (B16 [9]) | Activity (A-375 [10]) | Activity (A-375 [11]) | Activity (A-375 [12]) | Activity (B16 [14]) | Activity (B16 [15]) | Activity (A-375 [29]) | Activity (B16 [30])
>2040: Ratio (HeLa [26])
Active: Drug uptake [5]
inactive: Activity (A-375 [3]) | Activity (B16 [4])
Toxic: Activity [21] | Activity [22]

Reference: ChEMBL document CHEMBL4732046, “A red-light-activated sulfonamide porphycene for highly efficient photodynamic therapy against hypoxic tumor” (Eur J Med Chem, 2021)
